{"source": "patent US12187723B2", "about": "(BRISTOL-MYERS SQUIBB COMPANY, priority 2019, dated 2025)"}
{"molecular_target": "T1, human TLR7 (Homo sapiens, UniProt Q9NYK1)", "T1 construct": "host or cells: HEK-Blue cells", "T1 sequence (Q9NYK1 27-1049)": "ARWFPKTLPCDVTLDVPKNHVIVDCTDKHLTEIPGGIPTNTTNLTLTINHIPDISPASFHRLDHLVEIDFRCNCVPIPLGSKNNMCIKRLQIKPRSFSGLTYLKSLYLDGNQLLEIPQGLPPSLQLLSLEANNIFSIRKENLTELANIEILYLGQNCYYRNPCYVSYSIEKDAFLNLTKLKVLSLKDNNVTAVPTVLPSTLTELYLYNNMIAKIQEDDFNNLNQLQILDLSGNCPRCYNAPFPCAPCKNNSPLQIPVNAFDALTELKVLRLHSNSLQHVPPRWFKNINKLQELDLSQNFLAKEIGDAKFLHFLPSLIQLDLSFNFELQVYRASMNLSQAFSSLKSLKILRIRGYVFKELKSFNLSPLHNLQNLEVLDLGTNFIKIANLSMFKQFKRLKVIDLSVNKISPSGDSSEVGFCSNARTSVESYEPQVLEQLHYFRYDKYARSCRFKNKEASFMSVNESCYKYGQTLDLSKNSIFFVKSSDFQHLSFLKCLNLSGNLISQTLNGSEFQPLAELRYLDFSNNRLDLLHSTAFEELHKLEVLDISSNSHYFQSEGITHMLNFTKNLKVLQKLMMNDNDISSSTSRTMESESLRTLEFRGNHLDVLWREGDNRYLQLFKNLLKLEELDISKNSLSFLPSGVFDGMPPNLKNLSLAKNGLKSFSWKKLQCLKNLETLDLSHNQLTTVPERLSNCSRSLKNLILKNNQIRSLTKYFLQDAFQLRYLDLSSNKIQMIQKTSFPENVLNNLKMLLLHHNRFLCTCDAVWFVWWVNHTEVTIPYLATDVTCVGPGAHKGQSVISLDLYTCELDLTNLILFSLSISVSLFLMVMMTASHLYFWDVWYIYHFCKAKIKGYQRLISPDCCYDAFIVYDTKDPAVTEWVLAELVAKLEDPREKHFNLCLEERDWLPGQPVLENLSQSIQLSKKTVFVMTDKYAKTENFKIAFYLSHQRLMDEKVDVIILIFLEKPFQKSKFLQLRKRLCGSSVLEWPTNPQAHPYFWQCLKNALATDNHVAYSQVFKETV", "test": "TLR7 inhibition reporter assay (HEK-Blue SEAP)", "assay_type": "cell-based", "conditions": "HEK-Blue cells overexpressing human TLR7, gardiquimod 7.5 μM, 22 hour incubation", "how_it_was_run": "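SEAP readout via HEK-Blue Detection medium after 22 h at 37 °C, 5% CO2 defines inhibition, normalized between agonist-plus-DMSO wells and a reference inhibitor. Compound dose range 0.05 nM–50 μM; TLR7 cells at 15,000/well (gardiquimod), TLR8 at 20,000/well (R848).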", "units": {"IC50": "µM"}}
{"compound": "COc1cc(-c2cc3[nH]c(=O)n([C@H]4CC[C@@H](NCC(C)C)CC4)c3cc2C)cn2ncnc12", "note": "[Example 61, 1-((1s,4s)-4-(isobutylamino)cyclohexyl)-5-(8-methoxy-[1,2,4]triazolo[1,5-a]pyridin-6-yl)-6-methyl-1,3-dihydro-2H-benzo[d]imidazol-2-one]", "IC50": 0.0206}
{"compound": "CCC(CC)CN1CCC[C@@H](n2c(=O)[nH]c3cc(-c4cc(OC)c5ncnn5c4)c(C)cc32)C1", "note": "[Example 73, (R)-1-(1-(2-ethylbutyl)piperidin-3-yl)-5-(8-methoxy-[1,2,4]triazolo[1,5-a]pyridin-6-yl)-6-methyl-1,3-dihydro-2H-benzo[d]imidazol-2-one]", "IC50": 0.0324}
{"compound": "CCC(C)N[C@H]1CC[C@@H](n2c(=O)[nH]c3cc(-c4cc(C)c5ncnn5c4)c(C)cc32)CC1", "note": "(stereo partly drawn) [Example 34, 1-((1s,4s)-4-(sec-butylamino)cyclohexyl)-6-methyl-5-(8-methyl-[1,2,4]triazolo[1,5-a]pyridin-6-yl)-1,3-dihydro-2H-benzo[d]imidazol-2-one]", "IC50": 0.0205}
{"compound": "COc1cc(-c2ccc3c(c2)[nH]c(=O)n3C2CCN(C)CC2)cn2ncnc12", "note": "[Example 74, 5-(8-methoxy-[1,2,4]triazolo[1,5-a]pyridin-6-yl)-1-(1-methylpiperidin-4-yl)-1,3-dihydro-2H-benzo[d]imidazol-2-one]", "IC50": 0.948}
{"compound": "COc1cc(-c2cc3[nH]c(=O)n(C4CCN(C)CC4)c3cc2C)cn2ncnc12", "note": "[Example 1, 5-(8-methoxy-[1,2,4]triazolo[1,5-a]pyridin-6-yl)-6-methyl-1-(1-methylpiperidin-4-yl)-1,3-dihydro-2H-benzo[d]imidazol-2-one]", "IC50": 0.0379}
{"compound": "COc1cc(-c2ccc3c(c2)[nH]c(=O)n3C2CCN(CC3CCOC3)CC2)cn2ncnc12", "note": "(stereo not drawn) [Example 82, 5-(8-methoxy-[1,2,4]triazolo[1,5-a]pyridin-6-yl)-1-(1-((tetrahydrofuran-3-yl)methyl)piperidin-4-yl)-1,3-dihydro-2H-benzo[d]imidazol-2-one]", "IC50": 1.3}
{"compound": "COc1cc(-c2cc3[nH]c(=O)n([C@@H]4CCCN(C5COC5)C4)c3cc2C)cn2ncnc12", "note": "[Example 72, (R)-5-(8-methoxy-[1,2,4]triazolo[1,5-a]pyridin-6-yl)-6-methyl-1-(1-(oxetan-3-yl)piperidin-3-yl)-1,3-dihydro-2H-benzo[d]imidazol-2-one]", "IC50": 0.676}
{"compound": "Cc1cc2c(cc1-c1cc(C)c3ncnn3c1)[nH]c(=O)n2[C@@H]1CCCN(CC2CCOCC2)C1", "note": "[Example 41, (R)-6-methyl-5-(8-methyl-[1,2,4]triazolo[1,5-a]pyridin-6-yl)-1-(1-((tetrahydro-2H-pyran-4-yl)methyl)piperidin-3-yl)-1,3-dihydro-2H-benzo[d]imidazol-2-one]", "IC50": 0.0123}
{"compound": "COc1cc(-c2cc3[nH]c(=O)n([C@@H]4CCCN(C(C)C)C4)c3cc2C)cn2ncnc12", "note": "[Example 53, (R)-1-(1-isopropylpiperidin-3-yl)-5-(8-methoxy-[1,2,4]triazolo[1,5-a]pyridin-6-yl)-6-methyl-1,3-dihydro-2H-benzo[d]imidazol-2-one]", "IC50": 0.033}
{"compound": "Cc1cc2c(cc1-c1cc(C)c3ncnn3c1)[nH]c(=O)n2C1CCN(CC(=O)N(C)C)CC1", "note": "[Example 91, N,N-dimethyl-2-(4-(6-methyl-5-(8-methyl-[1,2,4]triazolo[1,5-a]pyridin-6-yl)-2-oxo-2,3-dihydro-1H-benzo[d]imidazol-1-yl)piperidin-1-yl)acetamide]", "IC50": "> 3.13"}
{"compound": "Cc1cc2c(cc1-c1cc(C)c3ncnn3c1)[nH]c(=O)n2C1CCN(CC(=O)N(C)C)CC1", "note": "[Example 89, N,N-dimethyl-2-(4-(6-methyl-5-(8-methyl-[1,2,4]triazolo[1,5-a]pyridin-6-yl)-2-oxo-2,3-dihydro-1H-benzo[d]imidazol-1-yl)piperidin-1-yl)acetamide]", "IC50": 0.111}
{"compound": "COc1cc(-c2cc3[nH]c(=O)n(C4CCN(CC(=O)N(C)C)CC4)c3cc2C)cn2ncnc12", "note": "[Example 86, 2-(4-(5-(8-methoxy-[1,2,4]triazolo[1,5-a]pyridin-6-yl)-6-methyl-2-oxo-2,3-dihydro-1H-benzo[d]imidazol-1-yl)piperidin-1-yl)-N,N-dimethylacetamide]", "IC50": 0.142}
{"compound": "Cc1cc2c(cc1-c1cc(C)c3ncnn3c1)[nH]c(=O)n2[C@H]1CCCN(CC(=O)N(C)C)C1", "note": "[Example 93, (S)—N,N-dimethyl-2-(3-(6-methyl-5-(8-methyl-[1,2,4]triazolo[1,5-a]pyridin-6-yl)-2-oxo-2,3-dihydro-1H-benzo[d]imidazol-1-yl)piperidin-1-yl)acetamide]", "IC50": 0.565}
{"compound": "Cc1cc2c(cc1-c1cc(C)c3ncnn3c1)[nH]c(=O)n2[C@@H]1CCCN(CCC(C)(C)C)C1", "note": "[Example 44, (R)-1-(1-(3,3-dimethylbutyl)piperidin-3-yl)-6-methyl-5-(8-methyl-[1,2,4]triazolo[1,5-a]pyridin-6-yl)-1,3-dihydro-2H-benzo[d]imidazol-2-one]", "IC50": 0.104}
{"compound": "COc1cc(-c2cc3[nH]c(=O)n([C@@H]4CCCN(CC5CC5)C4)c3cc2C)cn2ncnc12", "note": "[Example 55, (R)-1-(1-(cyclopropylmethyl)piperidin-3-yl)-5-(8-methoxy-[1,2,4]triazolo[1,5-a]pyridin-6-yl)-6-methyl-1,3-dihydro-2H-benzo[d]imidazol-2-one]", "IC50": 0.0231}
{"compound": "CCN[C@H]1CC[C@@H](n2c(=O)[nH]c3cc(-c4cc(OC)c5ncnn5c4)c(C)cc32)CC1", "note": "[Example 63, 1-((1s,4s)-4-(ethylamino)cyclohexyl)-5-(8-methoxy-[1,2,4]triazolo[1,5-a]pyridin-6-yl)-6-methyl-1,3-dihydro-2H-benzo[d]imidazol-2-one]", "IC50": 0.0451}
{"compound": "CCCN[C@H]1CC[C@@H](n2c(=O)[nH]c3cc(-c4cc(OC)c5ncnn5c4)c(C)cc32)CC1", "note": "[Example 64, 5-(8-methoxy-[1,2,4]triazolo[1,5-a]pyridin-6-yl)-6-methyl-1-((1s,4s)-4-(propylamino)cyclohexyl)-1,3-dihydro-2H-benzo[d]imidazol-2-one]", "IC50": 0.00671}
{"compound": "COc1cc(-c2ccc3c(c2)[nH]c(=O)n3C2CCN(CC3CCOCC3)CC2)cn2ncnc12", "note": "[Example 78, 5-(8-methoxy-[1,2,4]triazolo[1,5-a]pyridin-6-yl)-1-(1-((tetrahydro-2H-pyran-4-yl)methyl)piperidin-4-yl)-1,3-dihydro-2H-benzo[d]imidazol-2-one]", "IC50": 1.12}
{"compound": "CNC(=O)CN1CCC(n2c(=O)[nH]c3cc(-c4cc(C)c5ncnn5c4)c(C)cc32)CC1", "note": "[Example 88, N-methyl-2-(4-(6-methyl-5-(8-methyl-[1,2,4]triazolo[1,5-a]pyridin-6-yl)-2-oxo-2,3-dihydro-1H-benzo[d]imidazol-1-yl)piperidin-1-yl)acetamide]", "IC50": 0.333}
{"compound": "COc1cc(-c2cc3[nH]c(=O)n([C@H]4CC[C@@H](N(C)C(C)C)CC4)c3cc2C)cn2ncnc12", "note": "[Example 84, 1-((1s,4s)-4-(isopropyl(methyl)amino)cyclohexyl)-5-(8-methoxy-[1,2,4]triazolo[1,5-a]pyridin-6-yl)-6-methyl-1,3-dihydro-2H-benzo[d]imidazol-2-one]", "IC50": 0.016}
{"compound": "COc1cc(-c2ccc3c(c2)[nH]c(=O)n3C2CCN(C3COC3)CC2)cn2ncnc12", "note": "[Example 80, 5-(8-methoxy-[1,2,4]triazolo[1,5-a]pyridin-6-yl)-1-(1-(oxetan-3-yl)piperidin-4-yl)-1,3-dihydro-2H-benzo[d]imidazol-2-one]", "IC50": "> 3.13"}
